Measurements reported in the supplement of paper PMC10307832.

What was measured:
Test in all cases: relative viability (nuclei count vs DMSO), 5 days (fraction); higher = more cells survive
ChaGo-K-1 = test system: ChaGo-K-1
Procedure, shortened: (§1)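 Five library-drug doses in √10 steps were combined with a fixed anchor-drug dose, or a single drug was given alone, by pin tool to lung cancer cell lines in 1536-well plates the day after seeding. Nuclei were stained and counted after 5 days. Relative viability is the nuclei count in treated wells over that in vehicle wells, taken as the median of duplicate plates.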

NCI-H727 = test system: NCI-H727
Procedure, shortened: as §1

HCC-827 = test system: HCC-827
Procedure, shortened: as §1

SK-MES-1 = test system: SK-MES-1
Procedure, shortened: as §1

EMC-BAC-2 = test system: EMC-BAC-2
Procedure, shortened: as §1

NCI-H2126 = test system: NCI-H2126
Procedure, shortened: as §1

HCC-78 = test system: HCC-78
Procedure, shortened: as §1

COR-L 105 = test system: COR-L 105
Procedure, shortened: as §1

LU99A = test system: LU99A
Procedure, shortened: as §1

LOU-NH91 = test system: LOU-NH91
Procedure, shortened: as §1

EPLC-272H = test system: EPLC-272H
Procedure, shortened: as §1

NCI-H1734 = test system: NCI-H1734
Procedure, shortened: as §1

BEN = test system: BEN
Procedure, shortened: as §1

LK-2 = test system: LK-2
Procedure, shortened: as §1

NCI-H1792 = test system: NCI-H1792
Procedure, shortened: as §1

SW 1573 = test system: SW 1573
Procedure, shortened: as §1

RERF-LC-KJ = test system: RERF-LC-KJ
Procedure, shortened: as §1

NCI-H1944 = test system: NCI-H1944
Procedure, shortened: as §1

NCI-H1650 = test system: NCI-H1650
Procedure, shortened: as §1

EKVX = test system: EKVX
Procedure, shortened: as §1

NCI-H358 = test system: NCI-H358
Procedure, shortened: as §1

LCLC-97TM1 = test system: LCLC-97TM1
Procedure, shortened: as §1

NCI-H2087 = test system: NCI-H2087
Procedure, shortened: as §1

## O=c1[nH]c2ccccc2n1C1CCN(CCCC(c2ccc(F)cc2)c2ccc(F)cc2)CC1 [Pimozide] + CC(=O)c1c(C)c2cnc(Nc3ccc(N4CCNCC4)cn3)nc2n(C2CCCC2)c1=O [Palbociclib] (partner 0.5 µM)
ChaGo-K-1; first compound 0.08 µM
  relative viability: 0.918
ChaGo-K-1; first compound 0.253 µM
  relative viability: 0.955
ChaGo-K-1; first compound 0.8 µM
  relative viability: 0.9
ChaGo-K-1; first compound 2.53 µM
  relative viability: 0.903
ChaGo-K-1; first compound 8 µM
  relative viability: 0.9
NCI-H727; first compound 0.08 µM
  relative viability: 0.544
NCI-H727; first compound 0.253 µM
  relative viability: 0.661
NCI-H727; first compound 0.8 µM
  relative viability: 0.696
NCI-H727; first compound 2.53 µM
  relative viability: 0.676
NCI-H727; first compound 8 µM
  relative viability: 0.609
HCC-827; first compound 0.253 µM
  relative viability: 0.449
HCC-827; first compound 0.8 µM
  relative viability: 0.459
HCC-827; first compound 2.53 µM
  relative viability: 0.484
HCC-827; first compound 8 µM
  relative viability: 0.514
SK-MES-1; first compound 0.08 µM
  relative viability: 0.307
SK-MES-1; first compound 0.253 µM
  relative viability: 0.298
SK-MES-1; first compound 0.8 µM
  relative viability: 0.303
SK-MES-1; first compound 2.53 µM
  relative viability: 0.316
SK-MES-1; first compound 8 µM
  relative viability: 0.314
EMC-BAC-2; first compound 0.08 µM
  relative viability: 0.517
EMC-BAC-2; first compound 0.253 µM
  relative viability: 0.505
EMC-BAC-2; first compound 0.8 µM
  relative viability: 0.511
EMC-BAC-2; first compound 2.53 µM
  relative viability: 0.506
EMC-BAC-2; first compound 8 µM
  relative viability: 0.495
NCI-H2126; first compound 0.08 µM
  relative viability: 0.373
NCI-H2126; first compound 0.253 µM
  relative viability: 0.321
NCI-H2126; first compound 0.8 µM
  relative viability: 0.369
NCI-H2126; first compound 2.53 µM
  relative viability: 0.363
NCI-H2126; first compound 8 µM
  relative viability: 0.365
HCC-78; first compound 0.08 µM
  relative viability: 0.514
HCC-78; first compound 0.8 µM
  relative viability: 0.431
HCC-78; first compound 2.53 µM
  relative viability: 0.421
HCC-78; first compound 8 µM
  relative viability: 0.524
COR-L 105; first compound 0.08 µM
  relative viability: 0.378
COR-L 105; first compound 0.253 µM
  relative viability: 0.399
COR-L 105; first compound 0.8 µM
  relative viability: 0.409
COR-L 105; first compound 2.53 µM
  relative viability: 0.426
COR-L 105; first compound 8 µM
  relative viability: 0.416
LU99A; first compound 0.08 µM
  relative viability: 0.407
LU99A; first compound 0.8 µM
  relative viability: 0.388
LU99A; first compound 2.53 µM
  relative viability: 0.421
LU99A; first compound 8 µM
  relative viability: 0.41
LOU-NH91; first compound 0.08 µM
  relative viability: 0.525
LOU-NH91; first compound 0.253 µM
  relative viability: 0.404
LOU-NH91; first compound 0.8 µM
  relative viability: 0.443
LOU-NH91; first compound 2.53 µM
  relative viability: 0.558
LOU-NH91; first compound 8 µM
  relative viability: 0.539
EPLC-272H; first compound 0.08 µM
  relative viability: 0.309
EPLC-272H; first compound 0.253 µM
  relative viability: 0.308
EPLC-272H; first compound 0.8 µM
  relative viability: 0.328
EPLC-272H; first compound 2.53 µM
  relative viability: 0.329
EPLC-272H; first compound 8 µM
  relative viability: 0.333
NCI-H1734; first compound 0.08 µM
  relative viability: 0.316
NCI-H1734; first compound 0.253 µM
  relative viability: 0.262
NCI-H1734; first compound 0.8 µM
  relative viability: 0.372
NCI-H1734; first compound 2.53 µM
  relative viability: 0.347
NCI-H1734; first compound 8 µM
  relative viability: 0.328
BEN; first compound 0.08 µM
  relative viability: 0.442
BEN; first compound 0.253 µM
  relative viability: 0.472
BEN; first compound 0.8 µM
  relative viability: 0.451
BEN; first compound 2.53 µM
  relative viability: 0.457
BEN; first compound 8 µM
  relative viability: 0.494
LK-2; first compound 0.08 µM
  relative viability: 0.646
LK-2; first compound 0.253 µM
  relative viability: 0.599
LK-2; first compound 0.8 µM
  relative viability: 0.698
LK-2; first compound 8 µM
  relative viability: 0.562
NCI-H1792; first compound 0.08 µM
  relative viability: 0.665
NCI-H1792; first compound 0.253 µM
  relative viability: 0.635
NCI-H1792; first compound 0.8 µM
  relative viability: 0.625
NCI-H1792; first compound 2.53 µM
  relative viability: 0.589
NCI-H1792; first compound 8 µM
  relative viability: 0.52
SW 1573; first compound 0.08 µM
  relative viability: 0.422
SW 1573; first compound 0.253 µM
  relative viability: 0.318
SW 1573; first compound 0.8 µM
  relative viability: 0.249
SW 1573; first compound 2.53 µM
  relative viability: 0.214
SW 1573; first compound 8 µM
  relative viability: 0.146
RERF-LC-KJ; first compound 0.08 µM
  relative viability: 1
RERF-LC-KJ; first compound 0.253 µM
  relative viability: 0.972
RERF-LC-KJ; first compound 0.8 µM
  relative viability: 0.987
RERF-LC-KJ; first compound 2.53 µM
  relative viability: 0.778
RERF-LC-KJ; first compound 8 µM
  relative viability: 0.851
NCI-H1944; first compound 0.08 µM
  relative viability: 0.333
NCI-H1944; first compound 2.53 µM
  relative viability: 0.253
NCI-H1944; first compound 8 µM
  relative viability: 0.334
NCI-H1650; first compound 0.08 µM
  relative viability: 0.287
NCI-H1650; first compound 0.253 µM
  relative viability: 0.378
NCI-H1650; first compound 0.8 µM
  relative viability: 0.265
NCI-H1650; first compound 2.53 µM
  relative viability: 0.352
NCI-H1650; first compound 8 µM
  relative viability: 0.271
EKVX; first compound 0.253 µM
  relative viability: 0.4
EKVX; first compound 0.8 µM
  relative viability: 0.343
EKVX; first compound 2.53 µM
  relative viability: 0.387
EKVX; first compound 8 µM
  relative viability: 0.37
NCI-H358; first compound 0.08 µM
  relative viability: 0.141
NCI-H358; first compound 0.253 µM
  relative viability: 0.132
NCI-H358; first compound 0.8 µM
  relative viability: 0.127
NCI-H358; first compound 2.53 µM
  relative viability: 0.147
NCI-H358; first compound 8 µM
  relative viability: 0.143
LCLC-97TM1; first compound 0.08 µM
  relative viability: 0.203
LCLC-97TM1; first compound 0.253 µM
  relative viability: 0.237
LCLC-97TM1; first compound 0.8 µM
  relative viability: 0.203
LCLC-97TM1; first compound 2.53 µM
  relative viability: 0.167
LCLC-97TM1; first compound 8 µM
  relative viability: 0.251
NCI-H2087; first compound 0.08 µM
  relative viability: 0.197
NCI-H2087; first compound 0.253 µM
  relative viability: 0.233
NCI-H2087; first compound 2.53 µM
  relative viability: 0.274
NCI-H2087; first compound 8 µM
  relative viability: 0.195
